According to publication PMC7402526, “An in vitro quantitative systems pharmacology approach for deconvolving mechanisms of drug-induced, multilineage cytopenias” (PLoS Computational Biology, 2020):

Legend:
[1] = tested on: monocyte progenitors (monocyte prog); assay: MLTA, MonoP: concentration-response and QSP model fit; type: cell-based, human; conditions: Homo sapiens, Monocyte, 144 h
In short: (§1)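 Parameters come from fitting an Emax-based QSP model, with L1 regularization and Emax ranging 0–2, to vehicle-normalized, bead-corrected flow cytometry counts. Counts came from human bone marrow CD34+ cells treated from day 0 through a 6-day multi-lineage cytokine culture in SFEM II, using 2–7 donors per drug.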

[2] = tested on: granulocyte-macrophage progenitor (GMPs); assay: MLTA, GMPs: concentration-response and QSP model fit; type: cell-based, human; conditions: Homo sapiens, 144 h
In short: as §1

[3] = tested on: granulocytes (Gran-lin); assay: MLTA, Gran: concentration-response and QSP model fit; type: cell-based, human; conditions: Homo sapiens, 144 h
In short: as §1

[4] = tested on: total viable cells (totalViableCells); assay: MLTA, total live cells concentration-response; type: cell-based; conditions: Homo sapiens, 144 h, 6 days, normalized to vehicle control, read-out: total_live normalized cell count
Experimental: (§2) A custom optimized cytokine cocktail was developed using commercially available cytokines (Peprotech, New Jersey) to facilitate simultaneous multi-lineage differentiation and self-renewal of freeze-thawed primary human bone marrow-derived CD34+ cells in SFEM II media (cells and media from StemCell Technologies, Vancouver). Cultures were carried out in ultra-low attachment 96-well plates (Corning, New York) with test article added on day 0 and cultured at 37°C, 85% relative humidity, and 5% CO2 for six days before interrogating drug impact via 17-parameter flow cytometry.
(§3) The flow cytometry panel used to define hematopoietic subsets was composed of CD34-PECy7, CD90-PECY5, CD38-AF488, CD371-PE, CD45Ra-BV421, CD14-BV605, CD42b-AF647, CD10-PEDazzle594, CD235a-PerCPCy5.5 (BioLegend, California), CD15-BUV395, CD41a-APCH7, CD71-BV786 (BD Biosciences, California), and DAPI for dead cell exclusion (ThermoFisher, California). In short, Day 6 cells were harvested, FcR-blocked (FcR binding inhibitor, ThermoFisher), surface-stained, then analyzed in a buffer containing TruCount Control Beads using a BD LSR Fortessa SORP fitted with a high-throughput sampler (BD Biosciences, California). Data was analyzed in Diva 6.0.2 and exported to CSV where after all cell data was transformed to cell per mL then normalized on a per-donor basis to untreated control wells to determine drug impact.
(§4) Donor material was collected and cultured as described above. The number of replicate donor samples per drug ranged from 2–7 and varied per drug (S1 Table). Drug treatment was added at time 0 and cells were maintained in culture for 6 days. Concentrations tested for each drug compound are contained in S1 Table. Concentrations were selected to span a range that is clinically useful. Following treatment, cell populations were measured using flow cytometry. We extracted cell counts from flow cytometry data, normalized to bead counts, and corrected for well volume.
(§5) Each well was normalized to the average of six vehicle control wells. For drugs that were tested across multiple runs of the assay, vehicle-normalized donor data were pooled, and we used the average of these pooled data for further modeling. Normalized data used as model inputs are included in S1 Table.

[5] = tested on: B cells (B-lin); assay: MLTA, B-lin: concentration-response and QSP model fit; type: cell-based, human; conditions: Homo sapiens, B-cell, 144 h
In short: as §1

[6] = tested on: lymphocyte progenitors (LymP); assay: MLTA, LymP: concentration-response and QSP model fit; type: cell-based, human; conditions: Homo sapiens, Lymphocyte, 144 h
In short: as §1

[7] = tested on: monocytes (monocyte-lin); assay: MLTA, Mono: concentration-response and QSP model fit; type: cell-based, human; conditions: Homo sapiens, Monocyte, 144 h
In short: as §1

[8] = tested on: total dead cells (totalDeadCells); assay: MLTA, total dead cells concentration-response; type: cell-based; conditions: Homo sapiens, 144 h, 6 days, normalized to vehicle control, read-out: total_dead normalized cell count
Experimental: as §2, §3, §4, §5

[9] = QSP model fit of 6-day MLTA data

SMILES: CC(=O)c1c(C)c2cnc(Nc3ccc(N4CCNCC4)cn3)nc2n(C2CCCC2)c1=O [palbociclib]
- activity at 0.0002 µM ([1]; dose 0.2 nM, 6 days, normalized to vehicle control, read-out: MonoPs normalized cell count): 101%
- activity at 0.001 µM ([1]; dose 1 nM, 6 days, normalized to vehicle control, read-out: MonoPs normalized cell count): 92.3%
- activity at 0.005 µM ([1]; dose 5 nM, 6 days, normalized to vehicle control, read-out: MonoPs normalized cell count): 97.3%
- activity at 0.025 µM ([1]; dose 25 nM, 6 days, normalized to vehicle control, read-out: MonoPs normalized cell count): 44.4%
- activity at 0.1 µM ([1]; dose 100 nM, 6 days, normalized to vehicle control, read-out: MonoPs normalized cell count): 14.1%
- activity at 0.5 µM ([1]; dose 500 nM, 6 days, normalized to vehicle control, read-out: MonoPs normalized cell count): 4.6%
- activity at 2.5 µM ([1]; dose 2500 nM, 6 days, normalized to vehicle control, read-out: MonoPs normalized cell count): 0.787%
- Emax ([1]; parameter from QSP model fitting, read-out: Emax_drug_MonoP): 0.0351%
- EC50 [2, 9]: 0.0546 µM
- activity at 0.0002 µM ([2]; dose 0.2 nM, 6 days, normalized to vehicle control, read-out: GMPs normalized cell count): 92.3%
- activity at 0.001 µM ([2]; dose 1 nM, 6 days, normalized to vehicle control, read-out: GMPs normalized cell count): 94.2%
- activity at 0.005 µM ([2]; dose 5 nM, 6 days, normalized to vehicle control, read-out: GMPs normalized cell count): 92.5%
- activity at 0.025 µM ([2]; dose 25 nM, 6 days, normalized to vehicle control, read-out: GMPs normalized cell count): 76.3%
- activity at 0.1 µM ([2]; dose 100 nM, 6 days, normalized to vehicle control, read-out: GMPs normalized cell count): 53.9%
- activity at 0.5 µM ([2]; dose 500 nM, 6 days, normalized to vehicle control, read-out: GMPs normalized cell count): 23.9%
- activity at 2.5 µM ([2]; dose 2500 nM, 6 days, normalized to vehicle control, read-out: GMPs normalized cell count): 4.62%
- activity at 0.0002 µM ([3]; dose 0.2 nM, 6 days, normalized to vehicle control, read-out: Gran normalized cell count): 94.7%
- activity at 0.001 µM ([3]; dose 1 nM, 6 days, normalized to vehicle control, read-out: Gran normalized cell count): 93.9%
- activity at 0.005 µM ([3]; dose 5 nM, 6 days, normalized to vehicle control, read-out: Gran normalized cell count): 88.2%
- activity at 0.025 µM ([3]; dose 25 nM, 6 days, normalized to vehicle control, read-out: Gran normalized cell count): 53.9%
- activity at 0.1 µM ([3]; dose 100 nM, 6 days, normalized to vehicle control, read-out: Gran normalized cell count): 21.5%
- activity at 0.5 µM ([3]; dose 500 nM, 6 days, normalized to vehicle control, read-out: Gran normalized cell count): 4.56%
- activity at 2.5 µM ([3]; dose 2500 nM, 6 days, normalized to vehicle control, read-out: Gran normalized cell count): 0.37%
- Emax ([3]; parameter from QSP model fitting, read-out: Emax_drug_Gran): 0.0335%
- viability at 0.0002 µM ([4]; dose 0.2 nM): 94.8%
- viability at 0.001 µM ([4]; dose 1 nM): 99.6%
- viability at 0.005 µM ([4]; dose 5 nM): 91.8%
- viability at 0.025 µM ([4]; dose 25 nM): 69.8%
- viability at 0.1 µM ([4]; dose 100 nM): 39.6%
- viability at 0.5 µM ([4]; dose 500 nM): 15.4%
- viability at 2.5 µM ([4]; dose 2500 nM): 6.06%
- EC50 [5, 9]: 0.0906 µM
- activity at 0.0002 µM ([5]; dose 0.2 nM, 6 days, normalized to vehicle control, read-out: B-lin normalized cell count): 93.4%
- activity at 0.001 µM ([5]; dose 1 nM, 6 days, normalized to vehicle control, read-out: B-lin normalized cell count): 106%
- activity at 0.005 µM ([5]; dose 5 nM, 6 days, normalized to vehicle control, read-out: B-lin normalized cell count): 76.6%
- activity at 0.025 µM ([5]; dose 25 nM, 6 days, normalized to vehicle control, read-out: B-lin normalized cell count): 67.3%
- activity at 0.1 µM ([5]; dose 100 nM, 6 days, normalized to vehicle control, read-out: B-lin normalized cell count): 41.4%
- activity at 0.5 µM ([5]; dose 500 nM, 6 days, normalized to vehicle control, read-out: B-lin normalized cell count): 13.8%
- activity at 2.5 µM ([5]; dose 2500 nM, 6 days, normalized to vehicle control, read-out: B-lin normalized cell count): 8.85%
- Emax ([5]; parameter from QSP model fitting, read-out: Emax_drug_B): 49.9%
- activity at 0.0002 µM ([6]; dose 0.2 nM, 6 days, normalized to vehicle control, read-out: LymP normalized cell count): 86.1%
- activity at 0.001 µM ([6]; dose 1 nM, 6 days, normalized to vehicle control, read-out: LymP normalized cell count): 88%
- activity at 0.005 µM ([6]; dose 5 nM, 6 days, normalized to vehicle control, read-out: LymP normalized cell count): 73.1%
- activity at 0.025 µM ([6]; dose 25 nM, 6 days, normalized to vehicle control, read-out: LymP normalized cell count): 38%
- activity at 0.1 µM ([6]; dose 100 nM, 6 days, normalized to vehicle control, read-out: LymP normalized cell count): 12.4%
- activity at 0.5 µM ([6]; dose 500 nM, 6 days, normalized to vehicle control, read-out: LymP normalized cell count): 5.18%
- activity at 2.5 µM ([6]; dose 2500 nM, 6 days, normalized to vehicle control, read-out: LymP normalized cell count): 4.62%
- Emax ([6]; parameter from QSP model fitting, read-out: Emax_drug_LymP): 0.032%
- EC50 [7, 9]: 0.0393 µM
- activity at 0.0002 µM ([7]; dose 0.2 nM, 6 days, normalized to vehicle control, read-out: Mon normalized cell count): 90%
- activity at 0.001 µM ([7]; dose 1 nM, 6 days, normalized to vehicle control, read-out: Mon normalized cell count): 106%
- activity at 0.005 µM ([7]; dose 5 nM, 6 days, normalized to vehicle control, read-out: Mon normalized cell count): 89.9%
- activity at 0.025 µM ([7]; dose 25 nM, 6 days, normalized to vehicle control, read-out: Mon normalized cell count): 58.8%
- activity at 0.1 µM ([7]; dose 100 nM, 6 days, normalized to vehicle control, read-out: Mon normalized cell count): 25.6%
- activity at 0.5 µM ([7]; dose 500 nM, 6 days, normalized to vehicle control, read-out: Mon normalized cell count): 13.2%
- activity at 2.5 µM ([7]; dose 2500 nM, 6 days, normalized to vehicle control, read-out: Mon normalized cell count): 23.9%
- Emax ([7]; parameter from QSP model fitting, read-out: Emax_drug_Mono): 14.2%
- activity at 0.0002 µM ([8]; dose 0.2 nM): 101%
- activity at 0.001 µM ([8]; dose 1 nM): 102%
- activity at 0.005 µM ([8]; dose 5 nM): 103%
- activity at 0.025 µM ([8]; dose 25 nM): 64.6%
- activity at 0.1 µM ([8]; dose 100 nM): 40.5%
- activity at 0.5 µM ([8]; dose 500 nM): 28.9%
- activity at 2.5 µM ([8]; dose 2500 nM): 22.7%
